Laboratory results from patent US20030040485A1, “alpha/beta-adrenoceptors blockers and angiotensin converting enzyme inhibitors derived from hydroxyphenyl carboxylic acid and alcohol” (priority 2001, published 2003).

Experiments:
[1] = target: β1-adrenoceptor (left atrium) (Rattus norvegicus, UniProt P18090); test: β1-adrenoceptor antagonism, left atrium, pA2; conditions: Schild plot, mean ± SEM of six to eight experiments
[2] = target: T1, angiotensin converting enzyme (ACE) (Rattus norvegicus, UniProt P47820); test: ACE inhibitory activity in rat serum (Hycor kit, [3H]-hippuryl-glycyl-glycine); assay type: biochemical; conditions: mean of three samples
T1 construct: from tissue; host or cells: rat serum
T1 sequence (P47820 36-1238 limits assumed): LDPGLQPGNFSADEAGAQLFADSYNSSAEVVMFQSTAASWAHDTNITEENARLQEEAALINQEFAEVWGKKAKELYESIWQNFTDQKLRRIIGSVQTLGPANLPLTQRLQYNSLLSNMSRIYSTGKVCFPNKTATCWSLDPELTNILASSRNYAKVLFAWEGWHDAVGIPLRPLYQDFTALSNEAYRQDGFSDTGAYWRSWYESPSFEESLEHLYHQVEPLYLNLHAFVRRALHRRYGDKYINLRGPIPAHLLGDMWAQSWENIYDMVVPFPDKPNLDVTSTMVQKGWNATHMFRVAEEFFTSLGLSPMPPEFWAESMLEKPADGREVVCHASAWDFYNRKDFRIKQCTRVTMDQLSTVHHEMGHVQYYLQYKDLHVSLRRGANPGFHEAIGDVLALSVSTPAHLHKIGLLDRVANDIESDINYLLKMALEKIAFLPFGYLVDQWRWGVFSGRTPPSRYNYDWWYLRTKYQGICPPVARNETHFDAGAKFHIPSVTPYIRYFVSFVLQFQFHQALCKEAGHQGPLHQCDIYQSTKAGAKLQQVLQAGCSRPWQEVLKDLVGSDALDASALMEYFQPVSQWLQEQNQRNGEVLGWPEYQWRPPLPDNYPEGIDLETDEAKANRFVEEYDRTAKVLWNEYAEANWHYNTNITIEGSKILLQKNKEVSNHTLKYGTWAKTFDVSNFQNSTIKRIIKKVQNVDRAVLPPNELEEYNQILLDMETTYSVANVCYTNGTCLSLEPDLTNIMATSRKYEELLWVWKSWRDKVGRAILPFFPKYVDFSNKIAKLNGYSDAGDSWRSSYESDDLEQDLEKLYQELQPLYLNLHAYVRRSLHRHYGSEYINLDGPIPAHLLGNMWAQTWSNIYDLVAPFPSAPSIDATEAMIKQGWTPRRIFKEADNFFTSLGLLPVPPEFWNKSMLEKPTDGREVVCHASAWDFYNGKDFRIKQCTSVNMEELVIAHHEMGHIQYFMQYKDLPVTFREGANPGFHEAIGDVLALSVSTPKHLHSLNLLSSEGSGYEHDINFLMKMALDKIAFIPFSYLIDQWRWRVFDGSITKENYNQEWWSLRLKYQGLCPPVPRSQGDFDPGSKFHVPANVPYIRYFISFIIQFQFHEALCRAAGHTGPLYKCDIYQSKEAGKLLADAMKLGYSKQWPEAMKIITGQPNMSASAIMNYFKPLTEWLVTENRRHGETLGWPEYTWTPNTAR
Protocol: ACE value in serum was determined by Hycor kit, rat serum were cultured in 37° C. of [^3H]-hippuryl-glycyl-glycine for 60 minutes. While [^3H]-hippuryl-glycyl-glycine contains three peptide. [^3H] hippuric acid was obtained when extracted of culture solution with ethyl acetate, the content be determined by spectrophotometer. The content in serum sample was as the control group after it was added with 10^−8M, 10^−7M, 10^−6M compounds, then dissolved in PBS.

Sequence of β1-adrenoceptor (left atrium) (P18090 whole entry): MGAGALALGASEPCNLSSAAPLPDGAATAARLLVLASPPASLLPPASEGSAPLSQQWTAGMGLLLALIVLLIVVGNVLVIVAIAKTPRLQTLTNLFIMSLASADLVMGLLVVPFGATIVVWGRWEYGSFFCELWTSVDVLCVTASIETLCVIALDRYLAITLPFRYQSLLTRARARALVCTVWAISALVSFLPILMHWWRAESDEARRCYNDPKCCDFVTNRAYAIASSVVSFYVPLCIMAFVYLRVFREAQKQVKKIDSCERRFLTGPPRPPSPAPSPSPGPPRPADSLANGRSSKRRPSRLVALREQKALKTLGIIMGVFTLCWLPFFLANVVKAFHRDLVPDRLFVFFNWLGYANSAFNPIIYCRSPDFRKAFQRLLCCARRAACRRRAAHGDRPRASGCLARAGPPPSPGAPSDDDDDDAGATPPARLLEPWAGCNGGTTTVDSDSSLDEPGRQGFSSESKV

SMILES	β1 pA2 value, Left atrium [1]	Inhibitory activity of ACE, In Rat Serum ([2]; 10^−6M)	Inhibitory activity of ACE, In Rat Serum ([2]; 10^−7M)	Inhibitory activity of ACE, In Rat Serum ([2]; 10^−8M)
CCOC(=O)C(CCc1ccc(OCC(O)CNCCOc2ccccc2OC)cc1)NC(C)C(=O)N1CCCC1C(=O)O (mixture of isomers) [compound 6, Labetapril]	5.31	81%	67%	28%
CCOC(=O)C(CCc1ccccc1)NC(C)C(=O)N1CCCC1C(=O)OCc1ccc(OCC(O)CNC(C)(C)C)c(OC)c1 (centres unmarked) [compound 7, Vanynolpril]	5.78	83%	74%	35%
